Assay results taken from patent US7307097B2, “Chemical compounds” (SmithKline Beechman Corporation, priority 2001, dated 2007).
Blank lines part the entries; values can stand above or below the compound they belong to.

Tests used:
Recombinant GST-Tie2 = Recombinant GST-Tie2 (Homo sapiens, UniProt Q02763); assay: Tie2 fluorescence polarization kinase activity assay (TIE2-FP); format: biochemical; details: 200 μM ATP, activated enzyme; read-out: TIE2-FP pIC50 (converted)
Method: Tie2 Fluorescence Polarization Kinase Activity Assay (TIE2-FP) Activation of Recombinant Tie2 Activation: Recombinant GST-Tie2 is activated by incubating the enzyme in 20 mM Tris-HCl, pH7.5, 12 mM MgCl2, 100 mM NaCl, 20 μM sodium vanidate, 1 mM DTT and 300 μM ATP at room temperature for 2 hours. The activation mixture is then passed through a NAP-25 desalting column (Pharmacia Biotech cat. no. 17-0852-02) to remove the free ATP. The activated enzyme is stored as aliquots at−80° C. in 20mM Tris-HCl, pH7.5 and 100 mM NaCl. Assay Conditions: The final assay conditions are 50 mM HEPES, pH7.5, 5% DMSO (when screening compounds), 200 μM ATP, 5mM MgCl2, 1 mM DTT, 50 μM sodium vanidate, 1 nM activated enzyme, and 200 μM peptide. IC50's of compounds are measured under subsaturating ATP (200 μM) and varing concentrations of activated Tie2 and peptide substrate (RFWKYEFWR-OH; MW 1873 Da, TFA salt). Panvera Anti-phosphotyrosine antibody (Cat#P2840) and PTK Green Tracer (Cat#P2842) are used to detect the phosphorylated peptide. Polarization is measured on a TECAN Polarion in 138-second cycles for 30 minutes at room temperature. IC50's are then determined from the % polarization using normal calculation methods. The IC50 values are converted to pIC50 values, i.e.,−log IC50 in Molar concentration.

[1] = tested on: Human umbilical cord endothelial cells (HUVEC); assay: VEGF-driven cellular proliferation assay: BrdU incorporation assay (VEGF-C); format: cell-based; details: read-out: VEGF-C pIC50 (converted)
Method: VEGF-driven Cellular Proliferation Assay: BrdU Incorporation Assay (VEGF-C)
Human umbilical cord endothelial cells (HUVEC, Clonetics, CC2519) are passaged in Type I collagen-coated 100-mm petridishes in EGM-MV medium (Clonetics, CC3125) at 37 C. in a humidified 5% CO2, 95% air incubator. (HUVEC passaged more than 6 times in vitro are discarded and not subjected to assaying.) The cells are harvested using trypsin/EDTA, counted using a haemocytometer and plated at 5000 cells/well in a Type I-collagen coated 96-well plate (Becton Dickinson, 354407) in M199 medium (Gibco BRL, 12340-030) containing 5% FBS (Hyclone, A 1115-L) and gentamicin (at 50 ug/ml, Gibco BRL). After incubation overnight at 37° C., the media are replaced with 100 ul of M199 serum-free medium containing compounds at various concentrations with 0.6% DMSO and gentamicin. The compounds are diluted in serum-free M199 medium from 10 mM stock solutions prepared in 100% DMSO. […] The incorporation of BrdU into the proliferating HUVEC are analyzed using BrdU Cell Proliferation ELISA (Roche Molecular Biochemicals, 1647229) according to the manufacturer's protocols. The optical density at 450 nm is measured with a multilabel counter (ARVO SX, Wallac). The percent inhibition of cell growth is calculated relative to blank control wells. […]

GST-VEGFR2 = biological target: T1, GST-VEGFR2 (Homo sapiens, UniProt P35968); assay: VEGF-R2 enzyme assay (VEGFR-2-E2), LANCE method; format: biochemical; details: 75 uM ATP
T1 construct: recombinant constructs of the intracellular domains of human TIE2 tagged by GST; made in house
Excerpt: VEGF-R2 Enzyme Assay (VEGFR-2-E2)
The VEGF enzyme assay uses the LANCE method (Wallac) and GST-VEGFR2, baculovirus expressed recombinant constructs of the intracellular domains of […] tagged by GST. The method measures the ability of the purified enzymes to catalyse the transfer of the γ-phosphate from ATP onto tyrosine residues in a biotinylated synthetic peptide, (biotin-aminohexyl-EEEEYFELVAKKKK-NH2). This peptide phosphorylation is detected using the following procedure: GST-VEGFR2 is incubated for 40-60 mins at room temperature with 75 uM ATP, 5 mM MgCl2, 0.1 mM DTT, 0.1 mg/mL BSA and the test compound (diluted from a 10 mM stock in DMSO for desired concentration) in 100 mM HEPES buffer. The reaction is stopped by the addition of EDTA (final concentration 50 mM). Streptavidin linked-APC (allophycocyanin, Molecular Probe) and Europium-labeled anti-phosphorylated tyrosine antibody (Wallac) are then added at the final concentration of 15 nM and 1 nM, respectively. The APC signal is measured using an ARVO multilabel counter (Wallac Berthold, Japan). The percent inhibition of activity is calculated relative to blank control wells. The concentration of test compound that inhibits 50% of activity (IC50) is interpolated using nonlinear regression (Levernberg-Marquardt) and the equation, y=Vmax (1−x/(K+x))+Y2, where “K” is equal to the IC50. […]

[2] = biological target: T2, human VEGFR3 catalytic domain (Homo sapiens, UniProt P35916, H890Q); assay: VEGFR-3 homogenous time-resolved fluorescence assay (VEGFR-3-HTRF); format: biochemical; details: 75 μM ATP, 1 nM enzyme
T2 construct: made in house; host or cells: Sf9 insect cells (baculovirus, pFastBac1)
Excerpt: VEGFR-3—Homogenous Time-resolved Fluorescence Assay (VEGFR-3-HTRF)
This assay assesses Vascular Endothelial Growth Factor 3 (VEGFR3) tyrosine kinase inhibitory activity in substrate phosphorylation assays. The assay examines the ability of small molecule organic compounds to inhibit the tyrosine phosphorylation of a peptide substrate.
The substrate phosphorylation assays use the VEGFR3 catalytic domain, which is expressed in Sf. 9 insect cells as an amino-terminal GST-tagged fusion protein. The catalytic domain of human VEGFR3 (AA residues #819-1298 based upon GenBank Accession #XM003852) is cloned by PCR from human Placenta Marathon Ready cDNA (Clontech). The PCR product is subcloned into pFastBac1 vector containing an N-terminal GST tag. […]
200 nM VEGFR3 enzyme is activated for 45 minutes at room temperature by incubating the enzyme in buffer containing 100 mM HEPES (pH7.2), 75 μM ATP, 0.3 mM DTT, 0.1 mg/mL BSA, and 10 mM MgCl2. […] Assay plates are left unsealed and are counted in a Wallac Multilabel Counter 1420 (PerkinElmer).
The data for dose responses are plotted as % Control calculated with the data reduction formula 100*(U1-C2)/(C1-C2) versus concentration of compound where U is the unknown value, C1 is the average control value obtained for DMSO, and C2 is the average control value obtained for 0.1M EDTA. […]

[3] = biological target: T3, GST-TIE2 (intracellular domains of human TIE2) (Homo sapiens, UniProt Q02763); assay: TIE-2 enzyme assay (TIE-2-E2); format: biochemical
T3 construct: made in house
Excerpt: TIE-2 Enzyme Assay (TIE2-E)
The TIE-2 enzyme assay uses the LANCE method (Wallac) and GST-TIE2, baculovirus expressed recombinant constructs of the intracellular domains of human TIE2 (amino acids 762-1104, GenBank Accession # L06139) tagged by GST). The method measures the ability of the purified enzymes to catalyse the transfer of the γ-phosphate from ATP onto tyrosine residues in a biotinylated synthetic peptide, D1-15 (biotin-C6-LEARLVAYEGWVAGKKKamide). This peptide phosphorylation is detected using the following procedure: for enzyme preactivation, GST-TIE2 is incubated for 30 mins at room temperature with 2 mM ATP, 5 mM MgCl2 and 12.5 mM DTT in 22.5 mM HEPES buffer (pH7.4). Preactivated GST-TIE2 is incubated for 30 mins at room temperature in 96 well plates with 1 uM D1-15 peptide, 80 uM ATP, 10 mM MgCl2, 0.1 mg/ml BSA and the test compound (diluted from a 10 mM stock in DMSO, final DMSO concentration is 2.4%) in 1 mM HEPES (pH7.4). The reaction is stopped by the addition of EDTA (final concentration 45 mM). Streptavidin linked-APC (allophycocyanin, Molecular Probe) and Europium-labeled anti-phosphorylated tyrosine antibody (Wallac) are then added at the final concentration of 17 ug/well and 2.1 ug/well, respectively. The APC signal is measured using an ARVO multilabel counter. […] The percent inhibition of activity is calculated relative to blank control wells. […]

T2 sequence (P35916 with tags, fused parts or gaps isoform P35916-1 H890Q): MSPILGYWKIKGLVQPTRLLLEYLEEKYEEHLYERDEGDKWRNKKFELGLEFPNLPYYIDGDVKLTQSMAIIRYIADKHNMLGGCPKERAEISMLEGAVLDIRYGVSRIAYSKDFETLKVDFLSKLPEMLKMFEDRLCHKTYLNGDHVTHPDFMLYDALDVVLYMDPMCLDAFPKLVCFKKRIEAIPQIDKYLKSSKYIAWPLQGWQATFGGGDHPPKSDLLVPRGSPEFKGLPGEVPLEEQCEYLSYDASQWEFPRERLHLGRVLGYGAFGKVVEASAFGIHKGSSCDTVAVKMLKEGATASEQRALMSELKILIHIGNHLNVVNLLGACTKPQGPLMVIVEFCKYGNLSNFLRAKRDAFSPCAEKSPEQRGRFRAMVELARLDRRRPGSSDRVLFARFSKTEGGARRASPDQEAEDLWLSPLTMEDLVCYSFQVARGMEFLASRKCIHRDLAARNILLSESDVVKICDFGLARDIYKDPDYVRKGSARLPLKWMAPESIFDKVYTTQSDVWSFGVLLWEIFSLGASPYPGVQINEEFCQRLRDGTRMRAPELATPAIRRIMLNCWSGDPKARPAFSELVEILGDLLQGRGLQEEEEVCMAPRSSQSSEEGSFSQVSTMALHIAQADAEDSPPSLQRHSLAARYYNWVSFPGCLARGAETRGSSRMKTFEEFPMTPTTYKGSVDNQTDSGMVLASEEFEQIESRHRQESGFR
T3 sequence (Q02763 762-1104): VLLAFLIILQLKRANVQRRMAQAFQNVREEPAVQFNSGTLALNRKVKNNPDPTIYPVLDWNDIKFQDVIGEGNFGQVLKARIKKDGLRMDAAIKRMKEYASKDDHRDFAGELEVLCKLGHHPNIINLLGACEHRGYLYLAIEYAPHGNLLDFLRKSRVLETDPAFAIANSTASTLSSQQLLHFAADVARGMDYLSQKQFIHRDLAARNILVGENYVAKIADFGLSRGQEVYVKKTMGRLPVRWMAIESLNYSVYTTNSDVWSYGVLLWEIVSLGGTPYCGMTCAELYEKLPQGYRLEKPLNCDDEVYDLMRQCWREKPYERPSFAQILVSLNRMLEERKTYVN
T1 sequence (P35968 786-1356 limits assumed): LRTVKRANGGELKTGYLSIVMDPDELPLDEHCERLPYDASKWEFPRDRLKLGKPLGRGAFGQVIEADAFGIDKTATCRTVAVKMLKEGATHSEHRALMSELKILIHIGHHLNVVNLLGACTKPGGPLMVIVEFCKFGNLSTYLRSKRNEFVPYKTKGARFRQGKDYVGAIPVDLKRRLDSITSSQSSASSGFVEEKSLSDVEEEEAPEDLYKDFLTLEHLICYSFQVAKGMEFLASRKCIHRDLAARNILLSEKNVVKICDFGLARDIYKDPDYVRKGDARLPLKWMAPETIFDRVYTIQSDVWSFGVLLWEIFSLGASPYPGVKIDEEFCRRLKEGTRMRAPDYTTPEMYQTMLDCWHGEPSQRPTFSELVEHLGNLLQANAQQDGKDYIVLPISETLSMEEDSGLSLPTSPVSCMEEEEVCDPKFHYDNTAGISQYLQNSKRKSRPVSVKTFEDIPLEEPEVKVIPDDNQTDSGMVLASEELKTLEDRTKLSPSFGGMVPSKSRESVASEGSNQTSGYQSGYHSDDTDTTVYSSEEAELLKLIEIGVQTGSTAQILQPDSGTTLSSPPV
Recombinant GST-Tie2, sequence (Q02763 23-1124): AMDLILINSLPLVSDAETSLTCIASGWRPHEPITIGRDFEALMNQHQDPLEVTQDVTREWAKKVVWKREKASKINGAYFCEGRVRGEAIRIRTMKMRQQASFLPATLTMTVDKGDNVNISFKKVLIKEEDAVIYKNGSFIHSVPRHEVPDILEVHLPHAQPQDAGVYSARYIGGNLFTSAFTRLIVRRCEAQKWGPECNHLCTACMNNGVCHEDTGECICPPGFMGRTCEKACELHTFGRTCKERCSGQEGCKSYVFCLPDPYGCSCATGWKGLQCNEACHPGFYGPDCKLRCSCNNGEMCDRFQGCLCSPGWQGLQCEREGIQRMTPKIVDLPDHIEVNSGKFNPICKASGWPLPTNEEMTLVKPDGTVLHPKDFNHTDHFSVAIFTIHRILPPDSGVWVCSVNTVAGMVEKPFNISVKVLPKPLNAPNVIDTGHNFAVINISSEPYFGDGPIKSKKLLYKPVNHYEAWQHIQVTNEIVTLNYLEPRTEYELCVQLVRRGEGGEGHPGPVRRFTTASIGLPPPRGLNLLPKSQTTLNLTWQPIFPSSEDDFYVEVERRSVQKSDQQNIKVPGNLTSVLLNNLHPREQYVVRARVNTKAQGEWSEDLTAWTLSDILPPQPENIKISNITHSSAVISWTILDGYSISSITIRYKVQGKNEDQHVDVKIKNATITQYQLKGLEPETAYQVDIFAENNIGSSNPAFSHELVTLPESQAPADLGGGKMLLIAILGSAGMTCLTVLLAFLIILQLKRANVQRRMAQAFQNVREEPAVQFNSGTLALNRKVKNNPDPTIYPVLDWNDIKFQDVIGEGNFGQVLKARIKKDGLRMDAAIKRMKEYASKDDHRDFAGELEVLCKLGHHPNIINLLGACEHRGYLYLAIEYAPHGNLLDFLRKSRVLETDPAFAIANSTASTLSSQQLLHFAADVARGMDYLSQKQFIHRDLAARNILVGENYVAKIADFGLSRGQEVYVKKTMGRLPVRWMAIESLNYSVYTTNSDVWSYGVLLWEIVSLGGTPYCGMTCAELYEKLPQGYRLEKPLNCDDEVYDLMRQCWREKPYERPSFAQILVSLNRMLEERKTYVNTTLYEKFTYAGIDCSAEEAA

IC50 (Recombinant GST-Tie2): < 0.1 µM
Compound: CC(C)(C)n1nc(-c2ccc(NC(=O)Nc3cc(C(F)(F)F)ccc3F)cc2)c(C(N)=O)c1N [Example 1, 5-Amino-1-tert-butyl-3-{4-[3-(2-fluoro-5-trifluoromethyl-phenyl)-ureido]-phenyl}-1H-pyrazole-4-carboxylic acid amide]
IC50 [1]: < 0.1 µM

IC50 (GST-VEGFR2; read-out: VEGFR-2-E2 pIC50 (converted)): < 0.1 µM | IC50 ([2]; read-out: VEGFR-3-HTRF pIC50 (converted)): < 0.1 µM | IC50 ([3]; read-out: TIE-2-E2 pIC50 (converted)): < 0.1 µM
Compound: CC(C)(C)c1cc(NC(=O)Nc2ccc(-c3nn(C(C)(C)C)c(N)c3C(N)=O)cc2)no1 [Example 35, 5-Amino-1-tert-butyl-3-{4-[3-(5-tert-butyl-isoxazol-3-yl)-ureido]-phenyl}-1H-pyrazole-4-carboxylic acid amide]

Compound: N,N-Dimethylamino-{4-[3-(fluoro-trifluoromethyl-phenyl)-ureido]-phenyl}-methyl-1H-pyrazole-4-carboxylic acid amide [Example 34]
VEGFR-2-E2 pIC50 (GST-VEGFR2): + (+ = pIC50 of 5.0-6.0) | VEGFR-3-HTRF pIC50 [2]: + (+ = pIC50 of 5.0-6.0) | TIE-2-E2 pIC50 [3]: +++ (+++ = pIC50 > 7.0)
